Legend:
HiBit-KRAS^G12C [1] = biological target: T1, HiBit-KRAS^G12C (Homo sapiens, UniProt P01116, G12C); assay: HiBit degradation assay in MiaPaCa-2 HiBit-KRas^G12C cells; format: cell-based; details: 0.5% DMSO, 24 hours; for Dmax: MIA PaCa-2, MiaPaCa-2 HiBit-KRas^G12C cells, maximum degradation, read-out: KRas^G12C-HiBiT (MiaPaCa; 0.5% DMSO) DMax; for DC50: read-out: KRas^G12C-HiBiT (MiaPaCa; 0.5% DMSO) IC50, MiaPaCa-2 HiBit-KRas^G12C cells
In short: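 DC50 and Dmax come from 4-parameter fits of DMSO-normalized HiBit luminescence after 24 hours' exposure at 37° C to 10 μM–20 nM compound in 0.1% or 0.5% DMSO. Cells: MiaPaCa-2 carrying one endogenously HiBit-tagged KRAS^G12C allele; concentrations causing ≥50% […] viability loss (alamar blue) excluded.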

HiBit-KRAS^G12C [2] = biological target: T1, HiBit-KRAS^G12C; assay: HiBit degradation assay in SW1573 HiBit-KRas^G12C cells; format: cell-based; parameters: expressed in transfected cells; host or cells: SW1573 (clone E6), modified pcDNA3.1 vector, TK promoter; details: 0.5% DMSO, 24 hours; for Dmax: SW1573, SW1573 HiBit-KRas^G12C, read-out: KRas^G12C-HiBiT (SW1573; 0.5% DMSO) Dmax**; for DC50: read-out: KRas^G12C-HiBiT (SW1573; 0.5% DMSO) IC50***, SW1573 HiBit-KRas^G12C
In short: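 HiBit-KRAS G12C degradation was measured after a 24 h compound exposure (titrated 10 μM–20 nM) in engineered SW1573 cells. Lytic HiBit luminescence, expressed relative to DMSO controls, yielded DC50 and Dmax from 4-parameter fits. Concentrations causing ≥50% loss in alamar blue viability were omitted as cytotoxic.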

T1 sequence (P01116 1-186 isoform P01116-2 G12C limits assumed): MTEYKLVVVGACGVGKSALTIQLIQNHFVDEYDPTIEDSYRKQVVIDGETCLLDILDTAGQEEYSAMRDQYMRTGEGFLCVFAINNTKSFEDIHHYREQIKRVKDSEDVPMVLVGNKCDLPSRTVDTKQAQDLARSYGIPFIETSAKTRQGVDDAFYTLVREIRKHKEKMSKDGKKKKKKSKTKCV

SMILES | Dmax (HiBit-KRAS^G12C [1]) | DC50 (HiBit-KRAS^G12C [1]) | Dmax (HiBit-KRAS^G12C [2]) | DC50 (HiBit-KRAS^G12C [2])
C=C(F)C(=O)N1CCN(c2nc(OCCN3CCC(F)(COc4cc([C@H](C(=O)N5C[C@H](O)C[C@H]5C(=O)N[C@@H](C)c5ccc(-c6scnc6C)cc5)C(C)C)on4)CC3)nc3c(F)c(-c4cc(O)cc5ccccc45)c(Cl)cc23)C[C@@H]1CC#N (atropisomer, axis not shown) [Compound 121, (2S,4R)-1-[(2R)-2-[3-({1-[2-({6-chloro-4-[(3S)-3-(cyanomethyl)-4-(2-fluoroprop-2-enoyl)piperazin-1-yl]-8-fluoro-7-(3-hydroxynaphthalen-1-yl)quinazolin-2-yl}oxy)ethyl]-4-fluoropiperidin-4-yl}methoxy)-1,2-oxazol-5-yl]-3-methylbutanoyl]-4-hydroxy-N-[(1S)-1-[4-(4-methyl-1,3-thiazol-5-yl)phenyl]ethyl]pyrrolidine-2-carboxamide] | > 70% | 100 to 1000 nM | 35 to 70% | < 100 nM
C=C(F)C(=O)N1CCN(c2nc(OCCN3CCC(F)(COc4cc([C@@H](C(=O)N5C[C@H](O)C[C@H]5C(=O)N[C@@H](C)c5ccc(-c6scnc6C)cc5)C(C)C)on4)CC3)nc3c(F)c(-c4cc(O)cc5ccccc45)c(Cl)cc23)C[C@@H]1CC#N (atropisomer, axis not shown) [Compound 122, (2S,4R)-1-[(2S)-2-[3-({1-[2-({6-chloro-4-[(3S)-3-(cyanomethyl)-4-(2-fluoroprop-2-enoyl)piperazin-1-yl]-8-fluoro-7-(3-hydroxynaphthalen-1-yl)quinazolin-2-yl}oxy)ethyl]-4-fluoropiperidin-4-yl}methoxy)-1,2-oxazol-5-yl]-3-methylbutanoyl]-4-hydroxy-N-[(1S)-1-[4-(4-methyl-1,3-thiazol-5-yl)phenyl]ethyl]pyrrolidine-2-carboxamide] |  | > 1000 nM |  | > 1000 nM
C=C(F)C(=O)N1CCN(c2nc(OCCN3CCC(C)(COc4cc([C@H](C(=O)N5C[C@H](O)C[C@H]5C(=O)N[C@@H](C)c5ccc(-c6scnc6C)cc5)C(C)C)on4)CC3)nc3c(F)c(-c4cc(O)cc5ccccc45)c(Cl)cc23)C[C@@H]1CC#N (atropisomer, axis not shown) [Compound 123, (2S,4R)-1-[(2R)-2-[3-({1-[2-({6-chloro-4-[(3S)-3-(cyanomethyl)-4-(2-fluoroprop-2-enoyl)piperazin-1-yl]-8-fluoro-7-(3-hydroxynaphthalen-1-yl)quinazolin-2-yl}oxy)ethyl]-4-methylpiperidin-4-yl}methoxy)-1,2-oxazol-5-yl]-3-methylbutanoyl]-4-hydroxy-N-[(1S)-1-[4-(4-methyl-1,3-thiazol-5-yl)phenyl]ethyl]pyrrolidine-2-carboxamide] | > 70% | < 100 nM | > 70% | < 100 nM
C=C(F)C(=O)N1CCN(c2nc(OCCN3CCC(C)(COc4cc([C@H](C(=O)N5C[C@H](O)C[C@H]5C(=O)N[C@@H](C)c5ccc(-c6ccnn6C)cc5)C(C)C)on4)CC3)nc3c(F)c(-c4cc(O)cc5ccccc45)c(Cl)cc23)C[C@@H]1CC#N (atropisomer, axis not shown) [Compound 124, (2S,4R)-1-[(2R)-2-[3-({1-[2-({6-chloro-4-[(3S)-3-(cyanomethyl)-4-(2-fluoroprop-2-enoyl)piperazin-1-yl]-8-fluoro-7-(3-hydroxynaphthalen-1-yl)quinazolin-2-yl}oxy)ethyl]-4-methylpiperidin-4-yl}methoxy)-1,2-oxazol-5-yl]-3-methylbutanoyl]-4-hydroxy-N-[(1S)-1-[4-(1-methyl-1H-pyrazol-5-yl)phenyl]ethyl]pyrrolidine-2-carboxamide] | 35 to 70% | < 100 nM | 35 to 70% | < 100 nM
C=C(F)C(=O)N1CCN(c2nc(OCCN3CCC(C)(COc4cc([C@@H](C(=O)N5C[C@H](O)C[C@H]5C(=O)N[C@@H](C)c5ccc(-c6ccnn6C)cc5)C(C)C)on4)CC3)nc3c(F)c(-c4cc(O)cc5ccccc45)c(Cl)cc23)C[C@@H]1CC#N (atropisomer, axis not shown) [Compound 125, (2S,4R)-1-[(2S)-2-[3-({1-[2-({6-chloro-4-[(3S)-3-(cyanomethyl)-4-(2-fluoroprop-2-enoyl)piperazin-1-yl]-8-fluoro-7-(3-hydroxynaphthalen-1-yl)quinazolin-2-yl}oxy)ethyl]-4-methylpiperidin-4-yl}methoxy)-1,2-oxazol-5-yl]-3-methylbutanoyl]-4-hydroxy-N-[(1S)-1-[4-(1-methyl-1H-pyrazol-5-yl)phenyl]ethyl]pyrrolidine-2-carboxamide] |  | > 1000 nM |  | 100 to 1000 nM
C=C(F)C(=O)N1CCN(c2nc(OCCN3CCC(C)(COc4cc([C@@H](C(=O)N5C[C@H](O)C[C@H]5C(=O)N[C@@H](C)c5ccc(-c6scnc6C)cc5)C(C)C)on4)CC3)nc3c(F)c(-c4cc(O)cc5ccccc45)c(Cl)cc23)C[C@@H]1CC#N (atropisomer, axis not shown) [Compound 126, (2S,4R)-1-[(2S)-2-[3-({1-[2-({6-chloro-4-[(3S)-3-(cyanomethyl)-4-(2-fluoroprop-2-enoyl)piperazin-1-yl]-8-fluoro-7-(3-hydroxynaphthalen-1-yl)quinazolin-2-yl}oxy)ethyl]-4-methylpiperidin-4-yl}methoxy)-1,2-oxazol-5-yl]-3-methylbutanoyl]-4-hydroxy-N-[(1S)-1-[4-(4-methyl-1,3-thiazol-5-yl)phenyl]ethyl]pyrrolidine-2-carboxamide] |  | > 1000 nM |  | > 1000 nM

Other lines, results leading:

Dmax (HiBit-KRAS^G12C [1]) | DC50 (HiBit-KRAS^G12C [1]) | Dmax (HiBit-KRAS^G12C [2]) | DC50 (HiBit-KRAS^G12C [2]) | SMILES
> 70% | 100 to 1000 nM | > 70% | 100 to 1000 nM | C=C(F)C(=O)N1CCN(c2nc(OCCN3CCC(COCC(=O)N[C@H](C(=O)N4C[C@H](O)C[C@H]4C(=O)N[C@@H](C)c4ccc(-c5ccnn5C)cc4)C(C)(C)C)CC3)nc3c(F)c(-c4cc(O)cc5ccccc45)c(Cl)cc23)C[C@@H]1CC#N (atropisomer, axis not shown) [Compound 129, (2S,4R)-1-[(2S)-2-[2-({1-[2-({6-chloro-4-[(3S)-3-(cyanomethyl)-4-(2-fluoroprop-2-enoyl)piperazin-1-yl]-8-fluoro-7-(3-hydroxynaphthalen-1-yl)quinazolin-2-yl}oxy)ethyl]piperidin-4-yl}methoxy)acetamido]-3,3-dimethylbutanoyl]-4-hydroxy-N-[(1S)-1-[4-(1-methyl-1H-pyrazol-5-yl)phenyl]ethyl]pyrrolidine-2-carboxamide]
> 70% | 100 to 1000 nM | > 70% | 100 to 1000 nM | C=CC(=O)N1CCN(c2nc(OCCN3CCC(COCC(=O)N[C@H](C(=O)N4C[C@H](O)C[C@H]4C(=O)N[C@@H](C)c4ccc(-c5ccnn5C)cc4)C(C)(C)C)CC3)nc3c(F)c(-c4cc(O)cc5ccccc45)c(Cl)cc23)C[C@@H]1CC#N (atropisomer, axis not shown) [Compound 136, (2S,4R)-1-[(2S)-2-[2-({1-[2-({6-chloro-4-[(3S)-3-(cyanomethyl)-4-(prop-2-enoyl)piperazin-1-yl]-8-fluoro-7-(3-hydroxynaphthalen-1-yl)quinazolin-2-yl}oxy)ethyl]piperidin-4-yl}methoxy)acetamido]-3,3-dimethylbutanoyl]-4-hydroxy-N-[(1S)-1-[4-(1-methyl-1H-pyrazol-5-yl)phenyl]ethyl]pyrrolidine-2-carboxamide]
> 70% | 100 to 1000 nM | > 70% | < 100 nM | C=CC(=O)N1CCN(c2nc(OCCN3CCC(COc4cc([C@H](C(=O)N5C[C@H](O)C[C@H]5C(=O)N[C@@H](C)c5ccc(-c6ccnn6C)cc5)C(C)C)on4)CC3)nc3c(F)c(-c4cc(O)cc5ccccc45)c(Cl)cc23)C[C@@H]1CC#N (atropisomer, axis not shown) [Compound 138, (2S,4R)-1-[(2R)-2-[3-({1-[2-({6-chloro-4-[(3S)-3-(cyanomethyl)-4-(prop-2-enoyl)piperazin-1-yl]-8-fluoro-7-(3-hydroxynaphthalen-1-yl)quinazolin-2-yl}oxy)ethyl]-piperidin-4-yl}methoxy)-1,2-oxazol-5-yl]-3-methylbutanoyl]-4-hydroxy-N-[(1S)-1-[4-(1-methyl-1H-pyrazol-5-yl)phenyl]ethyl]pyrrolidine-2-carboxamide]
> 70% | 100 to 1000 nM | > 70% | < 100 nM | C=C(F)C(=O)N1CCN(c2nc(OCCN3CCC(COc4cc([C@H](C(=O)N5C[C@H](O)C[C@H]5C(=O)N[C@@H](C)c5ccc(-c6ccnn6C)cc5)C(C)C)on4)CC3)nc3c(F)c(-c4cc(O)cc5ccccc45)c(Cl)cc23)C[C@@H]1CC#N (atropisomer, axis not shown) [Compound 141, (2S,4R)-1-[(2R)-2-[3-({1-[2-({6-chloro-4-[(3S)-3-(cyanomethyl)-4-(2-fluoroprop-2-enoyl)piperazin-1-yl]-8-fluoro-7-(3-hydroxynaphthalen-1-yl)quinazolin-2-yl}oxy)ethyl]-piperidin-4-yl}methoxy)-1,2-oxazol-5-yl]-3-methylbutanoyl]-4-hydroxy-N-[(1S)-1-[4-(1-methyl-1H-pyrazol-5-yl)phenyl]ethyl]pyrrolidine-2-carboxamide]
